In assay [1] the target is T1, M receptors for serotonin (Oryctolagus cuniculus, UniProt A0A5F9C9J3).
T1 construct: isolated rabbit vagus nerve; from tissue; host or cells: isolated rabbit vagus nerve
T1 sequence (A0A5F9C9J3 1-494): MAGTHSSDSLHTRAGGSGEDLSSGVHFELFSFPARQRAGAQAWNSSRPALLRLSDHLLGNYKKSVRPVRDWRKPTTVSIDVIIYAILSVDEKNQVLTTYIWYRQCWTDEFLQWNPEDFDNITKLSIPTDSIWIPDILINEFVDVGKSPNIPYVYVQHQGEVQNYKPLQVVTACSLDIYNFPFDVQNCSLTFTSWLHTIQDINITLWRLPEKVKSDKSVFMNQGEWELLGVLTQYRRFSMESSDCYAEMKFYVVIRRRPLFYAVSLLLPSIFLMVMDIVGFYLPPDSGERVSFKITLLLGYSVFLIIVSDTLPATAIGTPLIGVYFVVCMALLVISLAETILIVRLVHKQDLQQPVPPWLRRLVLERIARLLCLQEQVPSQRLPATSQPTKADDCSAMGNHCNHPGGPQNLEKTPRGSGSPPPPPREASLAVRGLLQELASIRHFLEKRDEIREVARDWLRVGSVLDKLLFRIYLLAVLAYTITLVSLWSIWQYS
The conditions noted are these: isolated rabbit vagus nerve; known serotonin D receptor antagonists; cited from earlier work.

Assay [2] concerns the target T1, M receptors for serotonin. In words: isolated rabbit vagus nerve test (serotonin reduction of C fibre compound action potential). The following applies: antagonism of serotonin on C fibre action potential, read-out: pA2 in the vagus nerve test (converted). The source says: For example, in one test the action of the compounds in inhibiting the action of serotonin in reducing the amplitude of the compound action potential from the isolated rabbit vagus nerve was observed according to the principles of Riccioppo Neto, European Journal of Pharmacology (1978) 49 351-356, under conditions permitting differentation between action potentials generated in myelinatd nerve fibres (A fibres) and those generated in small non-myelinated fibres (C fibres) as described by B. Oakley and R. Schater, Experimental Neurobiology, A Laboratory Manual, University of Michigan Press, 1978, p.85 to 96. Serotonin itself exerts its effect selectively on the C-fibres progressively with dosage. This action of serotonin is not blocked by the known serotonin antagonists, metitepine, methysergide, BOL - 148, which have been said to block D receptors for serotonin, but not M receptors (see Gaddam and Picarlli, Brit.J.Pharmacol. (1957), 12, 323-328). It therefore appears that serotonin reduces the amplitude of the action potential carried by the C fibres through an effect mediated by M receptors for serotonin which are located on these nerve fibres.
The test may be effected by establishing a dose response curve for serotonin (10^-7 -5×10^-6 M) after setting up the nerve. […]

Assay [3] deals with migraine attack. The conditions noted are these: slow i.v. injection of 10 mg; reported by J. B. Hughes 1977; cited from earlier work.
Assay [4] relates to serotonin M receptor. The following applies: human volunteers, forearm blister; serotonin D receptor antagonists; cited from earlier work.

We go through six compounds from patent US4797406A, “Amides and esters containing bridged piperidines and use as serotonin M antagonists” (Sandoz Ltd., priority 1983, dated 1989).

The structures appear in SMILES notation.

On to `CSc1ccc2c(c1)C(N1CCN(C)CC1)Cc1ccccc1S2` (centres unmarked) [metitepine], for which the “block of the action of serotonin on the C fibre action potential” value (from here on “block of the action of serotonin”) in assay [1] was “not blocked”.

Take `CN1C[C@H]2CCC[C@@H](C1)[C@@H]2OC(=O)c1c[nH]c2ccccc12` [Example 2]: the Kb in assay [2] is 6.31 nM.

As to `CC[C@@H](CO)NC(=O)[C@@H]1C=C2c3cccc4c3c(cn4C)C[C@H]2N(C)C1` [methysergide], the “block of the action of serotonin” value in assay [1] is listed as “not blocked”.

Consider `CCN(CC)CCNC(=O)c1cc(Cl)c(N)cc1OC` [metoclopramide, Metoclopramide], for which the “effect on a migraine attack” value in assay [3] is “immediate effect”. In addition, the Kb in assay [2] was 50.1 nM.

Consider `CCN(CC)C(=O)[C@@H]1C=C2c3cccc4[nH]c(Br)c(c34)C[C@H]2N(C)C1` [BOL - 148], for which the “block of the action of serotonin” value in assay [1] was “not blocked”. Moreover, the “inhibition of the algesic action of serotonin on the blister base” value in assay [4] was “not inhibited”.

With `CCN(CC)C(=O)[C@@H]1C=C2c3cccc4[nH]cc(c34)C[C@H]2N(C)C1` [lysergic acid diethylamide], in assay [4], the “inhibition of the algesic action of serotonin on the blister base” value is “not inhibited”.
